Experimental data reported in US20080255498A1, “Sensitizer Solutions, Systems, and Methods of Use” (priority 2005, published 2008).

Experiment: Spectral absorption of light of sensitizer solutions (FIG. 2A, 2B)
Assay type: physicochemical
Text: FIG. 2A is a graphic representation of spectral absorption of light for two embodiments of the sensitizer solution plotting absorbance versus wavelength in nm.
FIG. 2B is a graphic representation of the spectral absorption of light for four embodiments of the sensitizer solution plotting absorbance versus wavelength in nm.
FIGS. 2A and 2B illustrate that the sensitizer solution 12 has an electromagnetic energy absorption level dependent on the frequency (i.e., wavelength) of the electromagnetic energy. […] See U.S. Pat. No. 6,561,808 by Neuberger.

In the case of C=Cc1c(C)c2cc3nc(c(CC(=O)O)c4[nH]c(cc5nc(cc1[nH]2)C(C)=C5CC)c(C)c4C(=O)O)[C@@H](CCC(=O)O)[C@@H]3C [chlorin e6], the “absorption spectrum primary peak” value is reported as “about 665 nm”, the “absorption spectrum secondary peak” value is reported as “about 575 nm” and the “absorption spectrum tertiary peak” value is reported as “about 515 nm”.

For silicon naphthalocyanine, the “absorption spectrum primary peak” value was “about 773 nm”, the “absorption spectrum secondary peak” value was “about 690 nm” and the “absorption spectrum tertiary peak” value was “about 735 nm”.

For bacteriochlorin a, the “absorption spectrum primary peak” value was “about 765 nm” and the “absorption spectrum secondary peak” value was “about 605 nm”.
